The values that follow come from patent US7691848B2, “Pyrrolobenzodiazepine arylcarboxamides and derivatives thereof as follicle-stimulating hormone receptor antagonists” (Wyeth, priority 2005, dated 2010).

Some results are limits rather than exact numbers.

One series deals with T1, human FSH receptor (Homo sapiens, UniProt P23945).
T1 construct: host or cells: CHO-K1 (CHO FSH-R 6CRE-Luc, 1D7 cells)
T1 sequence (P23945 18-695): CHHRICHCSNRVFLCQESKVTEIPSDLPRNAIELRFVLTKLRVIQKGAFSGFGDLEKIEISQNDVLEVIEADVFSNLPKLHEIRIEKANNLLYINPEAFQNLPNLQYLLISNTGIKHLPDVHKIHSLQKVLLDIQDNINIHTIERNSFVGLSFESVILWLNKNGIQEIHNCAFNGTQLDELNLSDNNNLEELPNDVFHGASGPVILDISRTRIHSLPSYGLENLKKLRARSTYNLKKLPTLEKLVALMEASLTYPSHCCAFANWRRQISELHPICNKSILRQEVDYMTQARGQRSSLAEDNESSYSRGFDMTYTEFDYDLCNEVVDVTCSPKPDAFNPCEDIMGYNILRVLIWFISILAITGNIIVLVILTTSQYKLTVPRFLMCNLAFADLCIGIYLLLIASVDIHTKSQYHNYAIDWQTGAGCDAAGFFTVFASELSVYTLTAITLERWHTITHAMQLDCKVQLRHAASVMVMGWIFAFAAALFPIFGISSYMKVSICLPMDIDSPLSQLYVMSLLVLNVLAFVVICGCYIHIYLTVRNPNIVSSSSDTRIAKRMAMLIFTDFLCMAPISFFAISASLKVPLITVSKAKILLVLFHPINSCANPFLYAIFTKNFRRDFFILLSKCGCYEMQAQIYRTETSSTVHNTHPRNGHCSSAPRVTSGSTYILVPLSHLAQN
The series can be described thus: Follicle-Stimulating Hormone Receptor-Dependent Cre-Luciferase Reporter Gene Assay (CHO FSH-R 6CRE-Luc cells). In kind it is cell-based. The settings on record: dose-response format, in presence of EC50 of purified human FSH. In outline: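 CHO-K1 cells stably expressing human FSH receptor and a 6×CRE-driven luciferase reporter; compounds in growth medium with 0.2% DMSO, incubated 4 h at 37 °C. Luciferase measured by chemiluminescence (RLU/sec/well); 2-dose results given as percent inhibition of the response to an EC50 concentration of FSH.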

The target of another series is T2, hFSH-R (Homo sapiens, UniProt P23945).
T2 construct: expressed in transfected cells; host or cells: CHO-3D2 cells (CHO-K1 parental line)
T2 sequence (P23945 18-695): T1 sequence (P23945 18-695)
The experiment in a line: cAMP accumulation (RIA) in CHO-3D2 cells (hFSH-R), hFSH-induced. The following applies: for Emax: read-out: cAMP % efficacy. Type of series: cell-based. As to the method:
In Vitro Bio-Assay, Selectivity and Dependency of Agonists and Antagonists to the FSH Receptor
Compound Vehicle: Stock compounds were solubilized in 100% DMSO (Sigma-Aldrich Chemical Co., St. Louis, Mo.) at a concentration of 30 mM. The compounds subsequently were diluted in sterile assay medium consisting of Opti-MEM® I (Invitrogen/Life Technologies, Carlsbad, Calif.) with 0.1% (w/v) BSA (Sigma-Aldrich) prior to use in the bio-assay. The final concentration of DMSO in the assay was 0.1%.
Plated cells are then incubated at 37° C. in a humidified 5% CO2/95% air atmosphere.
Assay: On the day of the assay, cells were washed three times with 100 μl/well of assay medium consisting of Opti-MEM® I (Invitrogen/Life Technologies) with 0.1% (w/v) BSA (Sigma-Aldrich). Medium was removed and 100 μl of assay medium was added to each well. Plates were incubated for an additional 30 minutes at 37° C. […] Reactions were terminated by the addition of 50 μl of 0.2N hydrochloric acid to each well and cAMP-accumulation was measured by radioimmunoassay (RIA) using a commercially available kit (Amersham Biosciences, Piscataway, N.J.).
All test compounds were evaluated in a dose-response paradigm ranging from 0.01 to 30 μM. Controls and test compounds were evaluated in quadruplicate in a 96-well format.
Along with the test compounds, FSH also was run as a positive control in the agonist mode using concentrations ranging from 0.1-1000 ng/ml.
Data were analyzed by one-way analysis of variance and significant differences between treatments and control determined by Least Significant Difference test.
Test compounds were compared to the effect of purified human FSH.

By IC50 is commonly meant the concentration that inhibits the measured activity by half. One may read the melting point as the temperature of the solid-liquid transition. Turning to `COc1cc(C(=O)N2Cc3ccc(C(=O)NCc4ccc5c(c4)OCO5)n3Cc3ccccc32)ccc1-c1ccccc1C` [Example 40], the melting point was 167 to 168 °C. Moreover, the IC50 on human FSH receptor came to 1.05 µM. At hFSH-R, the midpoint of inhibition, the IC50, lay at 0.4 µM and the Emax stood at 90%.

`COc1cc(C(=O)N2Cc3ccc(C(=O)NCc4cccc(C(F)(F)F)c4)n3Cc3ccccc32)ccc1-c1ccccc1C` [Example 42, 10-[(2-METHOXY-2′-METHYL-1,1′-BIPHENYL-4-YL)CARBONYL]-N-[3-(TRIFLUOROMETHYL)BENZYL]-10,11-DIHYDRO-5H-PYRROLO[2,1-C][1,4]BENZODIAZEPINE-3-CARBOXAMIDE]: the melting point lay in the range of 176 to 177 °C. The IC50 on human FSH receptor was 4.33 µM. On hFSH-R, the IC50 was found to be 6.3 µM and the Emax was 74%.

In turn, `COc1cc(C(=O)N2Cc3ccc(C(=O)NCc4ccccc4)n3Cc3ccccc32)ccc1-c1ccccc1C` [Example 44, N-BENZYL-10-[(2-METHOXY-2′-METHYL-1,1′-BIPHENYL-4-YL)CARBONYL]-10,11-DIHYDRO-5H-PYRROLO[2,1-C][1,4]BENZODIAZEPINE-3-CARBOXAMIDE] gave a melting point of 170 to 174 °C. Also, on human FSH receptor, the IC50 stood at 1.35 µM. The same molecule returned an IC50 at hFSH-R of over 30 µM.

Take `COc1cc(C(=O)N2Cc3ccc(C(=O)NCCc4ccc(O)cc4)n3Cc3ccccc32)ccc1-c1ccccc1C` [Example 55, N-[2-(4-HYDROXYPHENYL)ETHYL]-10-[(2-METHOXY-2′-METHYL-1,1′-BIPHENYL-4-YL)CARBONYL]-10,11-DIHYDRO-5H-PYRROLO[2,1-C][1,4]BENZODIAZEPINE-3-CARBOXAMIDE]: the melting point lay within 190 to 194 °C. The IC50 at human FSH receptor was over 30 µM. For the same molecule, at hFSH-R, the IC50 was 13 µM and the Emax is 60%.

Turning to `COc1cc(C(=O)N2Cc3ccc(C(=O)NCc4ccc(F)cc4)n3Cc3ccccc32)ccc1-c1ccccc1C` [Example 60, N-(4-FLUOROBENZYL)-10-[(2-METHOXY-2′-METHYL-1,1′-BIPHENYL-4-YL)CARBONYL]-10,11-DIHYDRO-5H-PYRROLO[2,1-C][1,4]BENZODIAZEPINE-3-CARBOXAMIDE], the melting point fell in the range of 214 to 215 °C. Also, the IC50 at human FSH receptor came out at 1.13 µM. Moreover, at hFSH-R, the half-inhibitory concentration (IC50) turned out to be 0.4 µM and the Emax was 95%.

On to `COc1cc(C(=O)N2Cc3ccc(C(=O)NCc4ccc5c(c4)OCCO5)n3Cc3ccccc32)ccc1-c1ccccc1C` [Example 64], for which the melting point lay in the range of 153 to 155 °C. Further, the IC50 at human FSH receptor was determined as 3.4 µM. In addition, at hFSH-R, the IC50 stood at 1.3 µM and the Emax was determined as 79%.
